Data published in article PMC8112869, “Therapeutic inhibition of keratinocyte TRPV3 sensory channel by local anesthetic dyclonine” (eLife, 2021).

Experiments:
[1] = biological target: T1, endogenous TRPV3 channels in mouse keratinocytes (Mus musculus, UniProt Q8K424); assay: Whole-cell recording of 2-APB-evoked TRPV3 currents in primary mouse epidermal keratinocytes; format: cell-based; settings: for TRPV3 currents, of control level: 300 μM 2-APB, –60 mV
T1 construct: endogenous in cells; host or cells: primary epidermal keratinocytes of newborn WT C57B/6 mice
T1 sequence (Q8K424 1-791): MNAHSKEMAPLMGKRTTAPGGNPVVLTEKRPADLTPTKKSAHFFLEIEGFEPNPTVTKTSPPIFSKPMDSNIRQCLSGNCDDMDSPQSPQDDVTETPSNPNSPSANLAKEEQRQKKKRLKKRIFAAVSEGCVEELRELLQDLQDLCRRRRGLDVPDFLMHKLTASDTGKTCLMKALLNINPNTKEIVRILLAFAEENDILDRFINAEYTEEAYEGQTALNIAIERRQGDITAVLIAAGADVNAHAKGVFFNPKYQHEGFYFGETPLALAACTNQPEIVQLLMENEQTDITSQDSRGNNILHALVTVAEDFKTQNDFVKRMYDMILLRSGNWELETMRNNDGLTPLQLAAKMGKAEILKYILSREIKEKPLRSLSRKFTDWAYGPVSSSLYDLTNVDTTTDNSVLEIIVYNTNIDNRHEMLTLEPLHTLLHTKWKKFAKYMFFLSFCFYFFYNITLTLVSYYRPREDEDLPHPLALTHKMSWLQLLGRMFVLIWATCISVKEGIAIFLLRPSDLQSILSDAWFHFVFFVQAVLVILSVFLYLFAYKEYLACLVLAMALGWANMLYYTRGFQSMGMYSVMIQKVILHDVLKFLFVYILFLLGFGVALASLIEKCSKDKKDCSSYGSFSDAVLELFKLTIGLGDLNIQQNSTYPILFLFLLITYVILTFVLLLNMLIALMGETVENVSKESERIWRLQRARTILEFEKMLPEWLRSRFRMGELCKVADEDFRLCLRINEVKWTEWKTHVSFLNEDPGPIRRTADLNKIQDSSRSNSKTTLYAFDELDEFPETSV
Procedure: The animal protocol used in this study was approved by the Institutional Animal Care and Use Committee of Wuhan University. Primary mouse keratinocytes were prepared according to the method previously described ([Luo et al., 2012]; [Pirrone et al., 2005]). Briefly, newborn WT C57B/6 mice (postnatal days 1–3) were deeply anaesthetized and decapitated and then soaked in 10% povidone-iodine, 70% ethanol, and phosphate-buffered saline (PBS) for 5 min, respectively. The skin on the back was removed and rinsed with pre-cold sterile PBS in a 100 mm Petri dish and transferred into a 2 ml tube filled with pre-cold digestion buffer containing 4 mg/ml dispase II and incubated overnight at 4°C. After treatment with dispase II for 12–18 hr, the epidermis was gently peeled off from dermis and collected. Keratinocytes were dispersed by gentle scraping and flushing with KC growth medium (Invitrogen). The resulting suspension of single cells was collected by centrifuge, and cells were seeded onto coverslips pre-coated with poly-L-lysine and maintained in complete keratinocyte serum-free growth medium (Invitrogen). Cell culture medium was refreshed every two days. Patch-clamp recordings were carried out 48 hr after plating.
Conventional whole-cell and excised patch-clamp recording methods were used. For the recombinant expressing system, green fluorescent EGFP was used as a surface marker for gene expression. Recording pipettes were pulled from borosilicate glass capillaries (World Precision Instruments) and fire-polished to a resistance between 2 and 4 MΩ when filled with internal solution containing (in mM) 140 CsCl, 2.0 MgCl2, 5 EGTA, and 10 HEPES, pH 7.4 (adjusted with CsOH). Bath solution contained (in mM): 140 NaCl, 5 KCl, 3 EGTA, and 10 HEPES, pH 7.4 adjusted with NaOH. For recordings in keratinocytes, the bath saline consisted of (in mM) 140 NaCl, 5 KCl, 2 MgCl2, 2 CaCl2, 10 glucoses, and 10 HEPES, pH 7.4 adjusted with NaOH, and the pipette solution contained (in mM) 140 CsCl, 5 EGTA, and 10 HEPES, pH 7.3 adjusted with CsOH. For single-channel recordings, the pipette solution and bath solution were symmetrical and contained (in mM) 140 NaCl, 5 KCl, 3 EGTA, and 10 HEPES, pH 7.4. Isolated cells were voltage clamped and held at –60 mV using an EPC10 amplifier with the Patchmaster software (HEKAElectronics, Lambrecht, Germany). For a subset of recordings, currents were amplified using an Axopatch 200B amplifier (Molecular Devices, Sunnyvale, CA) and recorded through a BNC-2090/MIO acquisition system (National Instruments, Austin, TX) using QStudio developed by Dr. Feng Qin at State University of New York at Buffalo. […] As determined by the conductance tests, the solution around a patch under study was fully controlled by the application of a flow rate of 100 μl/min or greater. […]

[2] = tested on: mouse dorsal root ganglia (DRG) and trigeminal ganglia (TG) neurons; assay: Current-clamp recording of mouse DRG and TG neurons; format: cell-based; settings: dyclonine 10 μM

- TRPV3 currents, of control level ([1]; 5 μM dyclonine): 52% ± 7%
- TRPV3 currents, of control level ([1]; 30 μM dyclonine): 13% ± 0.01%
- IC50 ([1]; 300 μM 2-APB-evoked, read-out: IC50 on TRPV3 currents in cultured keratinocytes): 5.2 ± 0.71 µM
- Hill coefficient nH ([1]; keratinocytes): 2.4 ± 0.75
Compound: CCCCOc1ccc(C(=O)CCN2CCCCC2)cc1 [dyclonine]
- effect on electrophysiological responses ([2]; DRG and TG neurons): little effect
- resting membrane potential (RMP) ([2]; DRG neurons): –45 ± 0.9 mV
- resting membrane potential (RMP) ([2]; TG neurons): –47.2 ± 1.9 mV
